Source: patent US6472348B1, “Pyridone derivatives and herbicides” (Kumiai Chemical Industry Co., Ltd., priority 1996, dated 2002)

How the values were obtained:
Assay type in all cases: in vivo
[1] = system: barnyardgrass (Ec); experiment: Test Example 1: herbicidal effects by paddy field soil treatment; details: 100 g of the active ingredient per 10 ares, 21st day after the application, index 0-5 of Table 47;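 also: grade of growth control; 5 = at least 90%; 4 = 70 to 90%; 3 = 50 to 70%; 2 = 30 to 50%; 1 = 10 to 30%; 0 = under 10%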
In short: (§1)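 Greenhouse pot test in flooded paddy soil, dosed at 100 g a.i. per 10 ares; effect scored on day 21.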

[2] = system: bulrush (Sc); experiment: as above; details: 100 g of the active ingredient per 10 ares, 21st day after the application, index 0-5 of Table 47;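 also: grade of growth control; 5 = at least 90%; 4 = 70 to 90%; 3 = 50 to 70%; 2 = 30 to 50%; 1 = 10 to 30%; 0 = under 10%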
In short: as §1

[3] = system: monochoria (Mo); experiment: as above; details: 100 g of the active ingredient per 10 ares, 21st day after the application, index 0-5 of Table 47;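 also: grade of growth control; 5 = at least 90%; 4 = 70 to 90%; 3 = 50 to 70%; 2 = 30 to 50%; 1 = 10 to 30%; 0 = under 10%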
In short: as §1

[4] = system: Digitaria ciliaris (Di); experiment: Test Example 2: herbicidal effects by upland field soil treatment; details: 100 g of the active ingredient per 10 ares;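 also: grade of growth control; 5 = at least 90%; 4 = 70 to 90%; 3 = 50 to 70%; 2 = 30 to 50%; 1 = 10 to 30%; 0 = under 10%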
Text: (§2) (Test on Herbicidal Effects by Upland Field Soil Treatment)

[5] = system: barnyardgrass (Ec); experiment: as above; details: 100 g of the active ingredient per 10 ares
Text: as §2

[6] = system: common lambsquarters (Ch); experiment: as above; details: 100 g of the active ingredient per 10 ares
Text: as §2

[7] = system: pale smartweed (Po); experiment: as above; details: 100 g of the active ingredient per 10 ares
Text: as §2

[8] = system: rice flatsedge (Ci); experiment: as above; details: 100 g of the active ingredient per 10 ares
Text: as §2

[9] = system: slender amaranth (Am); experiment: as above; details: 100 g of the active ingredient per 10 ares
Text: as §2

[10] = system: Diaitaria ciliaris (Di); experiment: Test Example 3: herbicidal effects by upland field foliage treatment; parameters: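 grade of growth control; 5 = at least 90%; 4 = 70 to 90%; 3 = 50 to 70%; 2 = 30 to 50%; 1 = 10 to 30%; 0 = under 10%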
In short: (§3)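 Two-week-old greenhouse seedlings, raised in sand-filled pots (120 cm^2) with seed covered by soil, receive a foliar application. Effects are then evaluated by standard grades 14 days later, plants remaining in the greenhouse meanwhile.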

[11] = system: barnyardgrass (Ec); experiment: as above; parameters: scale not given here
In short: as §3

[12] = system: common lambsquarters (Ch); experiment: as above; parameters: scale not given here
In short: as §3

[13] = system: pale smartweed (Po); experiment: as above; parameters: scale not given here
In short: as §3

[14] = system: rice flatsedge (Ci); experiment: as above; parameters: scale not given here
In short: as §3

[15] = system: slender amaranth (Am); experiment: as above; parameters: scale not given here
In short: as §3

[16] = system: cotton (Go); experiment: Test Example 4: crop plant selectivity by upland field soil treatment (cotton), phytotoxicity; parameters: scale not given here; details: dose 6.3 g ai/10 a, evaluated 21st day after application
Description: (§4) (Test on Crop Plant Selectivity by Upland Field Soil Treatment)
(§5) In a plastic pot (surface area: 600 cm^2) filled with sand, cotton (Go), Diaitaria ciliaris (Di), green foxtail (Se), pale smartweed (Po), slender amaranth (Am), common lambsquarters (Ch) and China jute (Ab) were sown and covered with soil. […] The plants were then cultured in a green house, and the evaluation of the herbicidal effects and phytotoxicity was conducted on the 21st day after the application in accordance with the standards as identified in Table 47. Symbol—represents “not tested”.

[17] = system: China jute (Ab); experiment: Test Example 4: crop plant selectivity by upland field soil treatment (cotton), herbicidal effects; parameters: scale not given here; details: dose 6.3 g ai/10 a, evaluated 21st day after application
Description: as §4, §5

[18] = system: common lambsquarters (Ch); experiment: as above; parameters: scale not given here; details: dose 6.3 g ai/10 a, evaluated 21st day after application
Description: as §4, §5

[19] = system: green foxtail (Se); experiment: as above; parameters: scale not given here; details: dose 6.3 g ai/10 a, evaluated 21st day after application
Description: as §4, §5

[20] = system: pale smartweed (Po); experiment: as above; parameters: scale not given here; details: dose 6.3 g ai/10 a, evaluated 21st day after application
Description: as §4, §5

[21] = system: slender amaranth (Am); experiment: as above; parameters: scale not given here; details: dose 6.3 g ai/10 a, evaluated 21st day after application
Description: as §4, §5

[22] = system: wheat (Tr); experiment: Test Example 5: crop plant selectivity by upland field soil treatment (wheat), phytotoxicity; parameters: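 grade of crop injury; 5 = at least 90%; 4 = 70 to 90%; 3 = 50 to 70%; 2 = 30 to 50%; 1 = 10 to 30%; 0 = under 10%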; details: 21st day after application
Description: as §4
(§6) In a plastic pot (surface area: 600 cm^2) filled with sand, wheat (Tr), Diaitaria ciliaris (Di), green foxtail (Se), pale smartweed (Po), slender amaranth (Am), common lambsquarters (Ch) and China jute (Ab) were sown and covered with soil. […] The plants were then cultured in a green house, and the evaluation of the herbicidal effects and phytotoxicity was conducted on the 21st day after the application in accordance with the standards as identified in Table 47. Symbol—represents “not tested”.

[23] = system: China jute (Ab); experiment: Test Example 5: crop plant selectivity by upland field soil treatment (wheat), herbicidal effects; parameters: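 grade of growth control; 5 = at least 90%; 4 = 70 to 90%; 3 = 50 to 70%; 2 = 30 to 50%; 1 = 10 to 30%; 0 = under 10%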; details: dose 6.3 g ai/10a, 21st day after application
Description: as §4, §6

[24] = system: common lambsquarters (Ch); experiment: as above; parameters: scale not given here; details: 21st day after application
Description: as §4, §6

[25] = system: green foxtail (Se); experiment: as above; parameters: scale not given here; details: 21st day after application
Description: as §4, §6

[26] = system: pale smartweed (Po); experiment: as above; parameters: scale not given here; details: 21st day after application
Description: as §4, §6

[27] = system: slender amaranth (Am); experiment: as above; parameters: scale not given here; details: 21st day after application
Description: as §4, §6

[28] = system: soybean (Gl); experiment: Test Example 6: crop plant selectivity by upland field soil treatment (soybean), phytotoxicity; parameters: scale not given here; details: dose 6.3 g ai/10a, 21st day after application
Description: as §4
(§7) In a plastic pot (surface area: 600 cm^2) filled with sand, soybean (Gl), Diaitaria ciliaris (Di), green foxtail (Se), Johnsongrass (So), pale smartweed (Po), slender amaranth (Am), common lambsquarters (Ch) and China jute (Ab) were sown and covered with soil. […] The plants were then cultured in a green house, and the evaluation of the herbicidal effects and phytotoxicity was conducted on the 21st day after the application in accordance with the standards as identified in Table 47. Symbol—represents “not tested”.

[29] = system: China jute (Ab); experiment: Test Example 6: crop plant selectivity by upland field soil treatment (soybean), herbicidal effects; parameters: scale not given here; details: dose 6.3 g ai/10a, 21st day after application
Description: as §4, §7

[30] = system: common lambsquarters (Ch); experiment: as above; parameters: scale not given here; details: dose 6.3 g ai/10a, 21st day after application
Description: as §4, §7

[31] = system: green foxtail (Se); experiment: as above; parameters: scale not given here; details: dose 6.3 g ai/10a, 21st day after application
Description: as §4, §7

[32] = system: pale smartweed (Po); experiment: as above; parameters: scale not given here; details: dose 6.3 g ai/10a, 21st day after application
Description: as §4, §7

[33] = system: slender amaranth (Am); experiment: as above; parameters: scale not given here; details: dose 6.3 g ai/10a, 21st day after application
Description: as §4, §7

[34] = system: corn (Ze); experiment: Test Example 7: crop plant selectivity by upland field soil treatment (corn), phytotoxicity; parameters: scale not given here; details: dose 6.3 g ai/10a, 21st day after application
Description: as §4
(§8) In a plastic pot (surface area: 600 cm^2) filled with sand, corn (Ze), green foxtail (Se), pale smartweed (Po), slender amaranth (Am), common lambsquarters (Ch) and China jute (Ab) were sown and covered with soil. […] The plants were then cultured in a green house, and the evaluation of the herbicidal effects and phytotoxicity was conducted on the 21st day after the application in accordance with the standards as identified in Table 47.

[35] = system: China jute (Ab); experiment: Test Example 7: crop plant selectivity by upland field soil treatment (corn), herbicidal effects; parameters: scale not given here; details: dose 6.3 g ai/10a, 21st day after application
Description: as §4, §8

[36] = system: common lambsquarters (Ch); experiment: as above; parameters: scale not given here; details: dose 6.3 g ai/10a, 21st day after application
Description: as §4, §8

[37] = system: green foxtail (Se); experiment: as above; parameters: scale not given here; details: dose 6.3 g ai/10a, 21st day after application
Description: as §4, §8

[38] = system: pale smartweed (Po); experiment: as above; parameters: scale not given here; details: dose 6.3 g ai/10a, 21st day after application
Description: as §4, §8

[39] = system: slender amaranth (Am); experiment: as above; parameters: scale not given here; details: dose 6.3 g ai/10a, 21st day after application
Description: as §4, §8

[40] = evaluated on the 21st day after application
[41] = 100 g active ingredient per 10 ares, evaluated 14th day after treatment
[42] = 21st day after the application, index 0-5 of Table 47
[43] = 100 g of the active ingredient per 10 ares, evaluated on the 14th day after treatment

| Structure (SMILES) | Herbicidal effects Ec [1] | Herbicidal effects Sc [2] | Herbicidal effects Mo [3] | Phytotoxicity Go [16] | Herbicidal effects Ab [17] | Herbicidal effects Ch [18] | Herbicidal effects Se [19] | Herbicidal effects Po [20] | Herbicidal effects Am [21] | Phytotoxicity Gl [28] | Herbicidal effects Ab [29] | Herbicidal effects Ch [30] | Herbicidal effects Se [31] | Herbicidal effects Po [32] | Herbicidal effects Am [33] | Phytotoxicity Ze [34] | Herbicidal effects Ab [35] | Herbicidal effects Ch [36] | Herbicidal effects Se [37] | Herbicidal effects Po [38] | also measured |
| --- | --- | --- | --- | --- | --- | --- | --- | --- | --- | --- | --- | --- | --- | --- | --- | --- | --- | --- | --- | --- | --- |
| CC(C)ON=Cc1cc(-c2ccc(C(F)(F)F)n(C)c2=O)c(F)cc1Cl [Compound 1-189] | 5 | 5 | 5 | 0 | 5 | 5 | 5 | 5 | 5 | 1 | 5 | 5 | 5 | 5 | 5 | 1 | 5 | 5 | 5 | 5 | Herbicidal effects Di [4, 40]: 5; Herbicidal effects Ec [5, 40]: 5; Herbicidal effects Ch [6, 40]: 5; Herbicidal effects Po [7, 40]: 5; Herbicidal effects Ci [8, 40]: 5; Herbicidal effects Am [9, 40]: 5; Herbicidal effects Di [10, 41]: 5; Herbicidal effects Ec [11, 41]: 5; Herbicidal effects Ch [12, 41]: 5; Herbicidal effects Po [13, 41]: 5; Herbicidal effects Ci [14, 41]: 5; Herbicidal effects Am [15, 41]: 5; Phytotoxicity Tr ([22]; dose 6.3 g ai/10a): 1; Herbicidal effects Ab [23]: 5; Herbicidal effects Ch ([24]; dose 6.3 g ai/10a): 5; Herbicidal effects Se ([25]; dose 6.3 g ai/10a): 5; Herbicidal effects Po ([26]; dose 6.3 g ai/10a): 5; Herbicidal effects Am ([27]; dose 6.3 g ai/10a): 5; Herbicidal effects Am [39]: 5 |
| CCCOc1cc(-c2ccc(C(F)(F)F)n(C)c2=O)c(F)cc1Cl [1-154] | 5 | 5 | 5 | 0 | 5 | 5 | 5 | 5 | 5 | 1 | 5 | 5 | 5 | 5 | 5 | 1 | 5 | 5 | 5 | 5 | Herbicidal effects Di [4, 42]: 5; Herbicidal effects Ec [5, 42]: 5; Herbicidal effects Ch [6, 42]: 5; Herbicidal effects Po [7, 42]: 5; Herbicidal effects Ci [8, 42]: 5; Herbicidal effects Am [9, 42]: 5; Herbicidal effects Di [10, 43]: 5; Herbicidal effects Ec [11, 43]: 5; Herbicidal effects Ch [12, 43]: 5; Herbicidal effects Po [13, 43]: 5; Herbicidal effects Ci [14, 43]: 5; Herbicidal effects Am [15, 43]: 5; Phytotoxicity Tr ([22]; dose 1.6 g ai/10a): 1; Herbicidal effects Ch ([24]; dose 1.6 g ai/10a): 5; Herbicidal effects Se ([25]; dose 1.6 g ai/10a): 5; Herbicidal effects Po ([26]; dose 1.6 g ai/10a): 5; Herbicidal effects Am ([27]; dose 1.6 g ai/10a): 5; Herbicidal effects Am [39]: 5 |
